Measurements as given in publication PMC8813803 (Clinical Pharmacokinetics, 2021).

What was measured:
[1] = Clinical ADME study NCT03315559; format: in vivo; settings: human; set from Fg 0.83 of clinical study 206764
[2] = test system: liver uptake transporters; test: Liver uptake transporter substrate status; format: in vitro ADME
[3] = human, cited from earlier work
[4] = in words; cited from earlier work
[5] = in words; cited from earlier work; remark: listed apart in the source
[6] = in words; cited from earlier work; remark: listed apart in the source

Intestinal FPE (first-pass extraction) [1]: 17%
Substrate of liver uptake transporters [2]: not a substrate
Structure (SMILES): CC(C)N1CCN(Cc2cnc(-c3cc(-c4cccc5[nH]ccc45)cc4[nH]ncc34)o2)CC1 [nemiralisib, Nemiralisib]
Fg (fraction escaping gut wall metabolism) ([3]; clinical study 206764 (NCT03315559)): 0.83
Volume of distribution at steady state ([3]; intravenous dosing): approximately 10 L/kg
tmax (time of maximum plasma concentration) ([3]; oral dose): 6 h
Oral bioavailability [3]: 35%
Rat lung tissue binding [4]: high
Permeability [5]: high
Solubility [6]: reasonable
